Measurements taken from patent US7741372B2, “Guanylhydrazones useful for treating diseases associated with T cell activation” (Cytokine PharmaSciences, Inc., priority 1996, dated 2010).
pIC50: −log10 of the molar value.

What was measured:
HIV-1 = conditions: AIDS patients; cited from earlier work
human T lymphocytes = test: T lymphocyte activation measured by IL-2 synthesis after a-CD3 and a-CD28 stimulation; type: cell-based; conditions: human T lymphocytes stimulated with a-CD3 and a CD28
Description: Without being limited by any theory regarding the mode of action of the multivalent guanylhydrazones, these compounds may work by disrupting the p38 MAPK pathway. p38 MAP kinase pathway plays a critical role in the activation of human T lymphocytes and this pathway is inhibited by the multivalent guanylhydrazone compounds. […] The activation of the p38 MAP kinase pathway was inhibited by the addition of a multivalent guanylhydrazone to the stimulated T lymphocytes. […] In addition, the assays of the present invention may include other in vivo assays to measure the effects of the test compounds on T cell activation. For example, test compounds may be assayed for their ability to inhibit activation of T cells. In such assays, test compounds may be added to T cells co-stimulated with a-CD3 and a-CD28. The stimulation of the T cells should result in the synthesis and secretion of cytokines, such as IL-2.

TNF = TNF production by macrophages activated by LPS; type: cell-based
Description: (§1) This example illustrates an experiment showing that an exemplary guanylhydrazone-substituted compound, CNI-1493 (N,N′-bis(3,5-diacetylphenyl)decanediamide tetrakis(amidinohydrazone) tetrahydrochloride) inhibited the p38 MAP kinase pathway. […] Further evidence for the mechanism of translation suppression was given by experiments using constructs in which the 5′UTR and the 3′UTR of TNF to drive expression of a reporter molecule. Both the 5′UTR and the 3′UTR regions of the TNF gene were required to elicit maximal translation suppression by CNI-1493. The effect of CNI-1493 on p38 MAPK was next determined as p38 MAPK has been implicated in the regulation of TNF translation.

p38 MAPK [1] = test: phospho-p38 MAPK levels in HIV-1 infected T cells (immunoprecipitation/immunoblot); type: cell-based, human
Experimental: (§2) Cell lysates were prepared for immunoprecipitation and immunoblotting 15 minutes after administration of LPS. In FIGS. 2B, 2C and 2D PHA-activated T cells were pretreated with control diluent or various concentrations of CNI-1493 for one hour, infected with HIV 1-LAV as in FIG. 1, and cultured for 10 days. FIG. 2B is a graph of dose-dependent inhibition by CNI-1493 of HIV-infection as assessed by the accumulation of reverse transcriptase (RT) at day 6 of culture. FIG. 2C is a graph of HIV inhibition by […] CNI-1493 over time. FIG. 2D is an immunoblot of phospho-p38 MAPK expression in HIV-1 infected cells on day 6 after culture treated with/without […] CNI-1493.
T cells were infected with HIV 1-LAV in the presence of […] 18-mer, refed every 3-4 days with media containing fresh oligomer and supernatants collected at various time points for RT assay. Simultaneously, cells were also plated, treated similarly and harvested for phospho-p38 MAPK levels assayed by immunoprecipitation at various time points as measured by RT assay. Shown in this figure is the effect of addition of sense and antisense p38 MAPK oligonucleotide on phospho-p38 levels and its correlation with HIV replication, as measured by RT.
Whole cell lysates were prepared using kinase lysis buffer containing a final concentration of 20 mM Tris pH 7.5, 10% glycerol, 1% Triton X-100, 0.137M NaCl, 25 mM B-glyceropliospliate. […]

HIV 1-LAV = test: HIV replication in PHA-activated primary T cells, reverse transcriptase (RT) assay; type: cell-based
Experimental: as §2
This example illustrates a role for the p38 MAP kinase pathway in HIV-1 infection of primary T cells, specifically addressing the hypothesis that activation of p38 MAPK is required for HIV-1 infection of primary T lymphocytes. For studies of human T cells, buffy coats were obtained by elutriation from normal human donors to the Long Island Blood Bank Services. Peripheral blood mononuclear cells (PBMC's) were isolated by density gradient centrifugation through Ficoll-Hypaque (Hypaque, Pharmacia). […]
Primary T cells activated with PHA were pretreated (or not) with CNI-1493 for one hour, infected with the LAV strain of HIV, and RT activity measured at various time points after infection, up to 10 days.

MIP 1α and MIP 1β = test: MIP-1α and MIP-1β levels by sandwich ELISA in HIV 1-LAV infected primary T cells; type: cell-based, human
Experimental: Assays were done in triplicate and error bars represent standard deviation of the mean.
Because ideal anti-HIV therapies would not interfere with the ability of the host to mount its own defense, it was also evaluated whether inhibition of the p38 MAP kinase signal transduction pathway inhibits chemokine production in T cells. Levels of MIP 1α and MIP 1β during LAV infection of primary T cells were not decreased by CNI-1493 (FIG. 4). MIP 1α and 1β levels dropped slightly late in HIV-1 infection (day 9).

p38 MAP kinase = molecular target: T1, p38 MAP kinase (Homo sapiens, UniProt Q16539); test: p38 MAP kinase activity (GST-ATF2 phosphorylation) in Jurkat cells stimulated with anti-CD3/anti-CD28; type: cell-based
T1 construct: Endogenous p38 was immunoprecipitated with polyclonal p38 antibody; endogenous in cells; host or cells: Jurkat cells (ATCC)
Description: For studies of human T cells, buffy coats were obtained by elutriation from normal human donors to the Long Island Blood Bank Services. Peripheral blood mononuclear cells (PBMC's) were isolated by density gradient centrifugation through Ficoll-Hypaque (Hypaque. Pharmacia); typically one preparation yielded 200×10^6 cells. T cells were isolated by passing through a T cell column (R&D) as per manufacturer's instructions. Jurkat cells were obtained from ATCC and maintained in DMEM containing 10% heat-inactivated fetal bovine serum, antibiotics and L-glutamine.
A rabbit polyclonal antibody against p38, and the recombinant GST-AFT2 plasmid where a gift of Dr. Roger Davis (Howard Hughes Institute, Worcester, Mass.). A GST-AFT2 fusion protein was purified by affinity chromatography using glutatione-agarose, as per manufacturer's instructions (Pharmacia, Inc.). The human monoclonal anti-CD3 antibody was purchased from Pharmingen and a human monoclonal anti-CD28 antibody was purchased.
Whole cell lysates were prepared using kinase lysis buffer, containing a final concentration of 20 mM Tris pH 7.5, 10% glycerol, 1% Triton X-100, 0.137M NaCl, 25 mM B-glycerophosphate, 2 mM EDTA, 1 mM orthovanadate, 2 mM pyrophosphate, 10 μg/ml Leupeptin, 1 mM PMSF. Proteins were fractionated on a 12% SDS-PAGE gel, transferred by electrophoresis to PVDF membranes (Biorad, Inc.) and probed with a 1:1000 dilution of a rabbit polyclonal antibody that immunospecifically recognizes phosphorylated human p38 MAPK (Santa Cruz Biotechnology, Inc.). Binding to antibody was detected using enhanced chemiluminescence (Amersham International PLC).
2-5×10^6 cells were lysed after appropriate pretreatment in 500-1000 μl kinase lysis buffer and centrifuged at 14,000×g for 15 minutes at 4° C. Endogenous p38 was immunoprecipitated with polyclonal p38 antibody prebound to protein-A agarose for one hour at room temp. […]

p38 MAPK [2] = molecular target: T2, p38 MAPK (Homo sapiens, UniProt Q16539); test: p38 MAPK activity in human PBMC's after addition of LPS; type: cell-based; conditions: human PBMC's pretreated with compound
T2 construct: endogenous in cells; host or cells: human PBMCs
Description: as §1

[3] = 1 μM 18-mer, day 7 and day 10 after infection, FIG. 3

T1 sequence (Q16539 whole entry): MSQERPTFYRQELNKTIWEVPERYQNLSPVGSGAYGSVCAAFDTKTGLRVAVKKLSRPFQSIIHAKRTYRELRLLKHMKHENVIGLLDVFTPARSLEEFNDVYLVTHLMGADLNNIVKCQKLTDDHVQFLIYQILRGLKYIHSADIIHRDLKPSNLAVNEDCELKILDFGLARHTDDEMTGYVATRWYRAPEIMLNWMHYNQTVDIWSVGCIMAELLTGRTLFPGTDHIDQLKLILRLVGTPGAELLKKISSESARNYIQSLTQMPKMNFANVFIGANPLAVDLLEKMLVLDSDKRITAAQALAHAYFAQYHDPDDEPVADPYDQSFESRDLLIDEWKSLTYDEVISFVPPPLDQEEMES
T2 sequence (Q16539 whole entry): as above

For `CC(C)c1nc(CN(C)C(=O)N[C@H](C(=O)N[C@@H](Cc2ccccc2)C[C@H](O)[C@H](Cc2ccccc2)NC(=O)OCc2cncs2)C(C)C)cs1` [ABT-538], the CD4 lymphocyte counts (HIV-1) is listed as “rise substantially” and the “plasma HIV-1 levels” value (HIV-1) is listed as “decrease exponentially”.
In the case of `CC(=NNC(=N)N)c1cc(NC(=O)CCCCCCCCC(=O)Nc2cc(C(C)=NNC(=N)N)cc(C(C)=NNC(=N)N)c2)cc(C(C)=NNC(=N)N)c1.Cl.Cl.Cl.Cl` [CNI-1493, N,N′-bis(3,5-diacetylphenyl)decanediamide tetrakis(amidinohydrazone) tetrahydrochloride], the “activation of T lymphocytes as measured by IL-2 synthesis” value (human T lymphocytes) was “inhibition of activation of the T lymphocytes”, the “TNF production by macrophages activated by LPS” value (TNF) was “inhibit TNF production” and the “synthesis of 26 kDA membrane form of TNF” value (TNF) was “blocked the synthesis”. The “p38 MAP kinase activity in HIV-infected T cells” value (p38 MAPK [1]; 1 μM, FIGS. 2C, 2D) was “suppression of p38 MAP kinase activity”, the pIC50 (HIV 1-LAV; primary T cells activated with PHA, pretreated one hour, LAV strain of HIV, RT activity, FIG. 2B, read-out: IC50 of inhibition of HIV replication in T-cells) was roughly 6.30 and the “level of MIP 1α during LAV infection of primary T cells” value (MIP 1α and MIP 1β; FIG. 4) was “not decreased”. For the same compound, the “level of MIP 1β during LAV infection of primary T cells” value (MIP 1α and MIP 1β; FIG. 4) was “not decreased”, the “chemokine levels (MIP 1α and 1β) day 6” value (MIP 1α and MIP 1β; day 6 of HIV-1 infection) was “slightly elevated” and the “chemokine levels (MIP 1α and 1β) day 9” value (MIP 1α and MIP 1β; day 9 of HIV-1 infection) was “normal”. The “effect on anti-CD3 stimulated p38 MAPK activity” value (p38 MAP kinase; anti-CD3 alone) was “unaffected”, the “inhibition of stimulated p38 MAPK activity” value (p38 MAP kinase; anti-CD28 stimulation (as worded: stimulation of p38 MAPK), dose of 1.5 μM) was “approximately 50%” and the “inhibition of p38 MAPK activity on co-stimulation with anti-CD3 and anti-CD28” value (p38 MAP kinase; dose of 1.5 μM) was “inhibited completely”. The “p38 MAPK activity after the addition of LPS” value (p38 MAPK [2]) was “suppression of p38 MAPK activity”.
For “p38 MAP kinase antisense oligonucleotides: 18-mer phosphothiorate oligonucleotide, antisense to bp 324-341 of human p38 MAPK, 5′GTCTTGTTCAGCTCCTGC3′”, the “phospho-p38 MAPK activity” value (p38 MAPK [1]; [3]) was “decrease in phospho-p38 MAPK activity” and the “HIV replication as measured by RT” value (HIV 1-LAV; [3]) was “decreased HIV replication”.
